Source: article PMC9781916, “Antipsychotic- and Anxiolytic-like Properties of a Multimodal Compound JJGW08 in Rodents” (International Journal of Molecular Sciences, 2022)

Experiments:
[1] = biological target: T1, human serotonin 5-HT1A receptor (Homo sapiens, UniProt P08908); test: Functional assay (aequorin, calcium mobilization) in CHO-K1 cells, 5-HT1A receptor; type: cell-based
T1 construct: host or cells: CHO-K1
T1 sequence (P08908 1-422): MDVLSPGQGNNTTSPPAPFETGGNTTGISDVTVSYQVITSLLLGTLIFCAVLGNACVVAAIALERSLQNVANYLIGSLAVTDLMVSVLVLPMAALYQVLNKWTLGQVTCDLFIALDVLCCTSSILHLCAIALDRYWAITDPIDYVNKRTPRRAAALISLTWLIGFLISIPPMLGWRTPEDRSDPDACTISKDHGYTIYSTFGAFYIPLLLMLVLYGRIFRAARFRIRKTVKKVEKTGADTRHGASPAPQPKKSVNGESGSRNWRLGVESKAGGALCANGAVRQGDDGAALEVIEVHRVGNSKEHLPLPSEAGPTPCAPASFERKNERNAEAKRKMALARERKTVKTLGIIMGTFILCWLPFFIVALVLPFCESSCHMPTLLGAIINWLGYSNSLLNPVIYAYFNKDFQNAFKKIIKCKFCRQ
Method: (§1) Tested and reference compounds were dissolved in dimethyl sulfoxide (DMSO) at a concentration of 10 mM. Serial dilutions were prepared in a 96-well microplate in assay buffer, and 8 to 10 concentrations were tested. […] The assay was executed according to the previously described protocol [45]. After thawing, cells were transferred to assay buffer (DMEM/HAM’s F12 with 0.1% protease-free BSA) and centrifuged. The cell pellet was resuspended in assay buffer, and coelenterazine h was added at final concentrations of 5 µM. The cell suspension was incubated at 16 °C (or 21 °C), protected from light with constant agitation for 16 h (or 4 h), and then diluted with assay buffer to the concentration of 100,000 cells/mL (or 250,000 cells/mL). After 1 h of incubation, 50 µL of the cell’s suspension was dispensed using automatic injectors built into the radiometric and luminescence plate counter MicroBeta2 LumiJET (PerkinElmer, Waltham, NA, USA) into white opaque 96-well microplates preloaded with test compounds. Immediate light emission generated following calcium mobilization was recorded for 30 s. In antagonist mode, after 25–30 min of incubation, the reference agonist was added to the above assay mix, and light emission was re-recorded. […] IC50 and EC50 values were calculated.

5-HT1A receptors = tested on: 5-HT1A receptors; parameters: method as in doi:10.1016/j.molstruc.2022.134585; conditions: cited from earlier work
human D2 receptor = biological target: T2, human D2 receptor (Homo sapiens, UniProt P14416); test: Functional assay (aequorin, calcium mobilization) in CHO-K1 cells, D2 receptor; type: cell-based
T2 construct: host or cells: CHO-K1
Method: as §1

mice [2] = test: Spontaneous locomotor activity in mice; type: in vivo
Method: The locomotor activity of mice was measured as previously described using the same apparatus as described in paragraph 4.5. Each mouse was placed individually in a cage for a 30 min habituation period (directly after administration of the studied compound), and then the number of photobeams crossings was recorded (ambulation). Locomotor activity was evaluated every 1 or 5 min for 1–60 min depending on the observation period in behavioral tests (60 min for the hyperlocomotion test, 30 min for the marble burying test, and 1 min for the four-plate test). The cages were disinfected with an odorless disinfection solution after each mouse.

mice [3] = test: Rotarod test in mice; type: in vivo; conditions: for Animals That Fell from Rotating Rod: 30 min before test; for Time before Animals Fell: max 60 s, mean ± SD
Method: Mice were trained on the rotarod apparatus (May Commat RR0711, Ankara, Turkey; rod diameter: 2 cm) for 3 consecutive days. During each training session, animals were placed for 3 min on the rotating rod (24 rpm, constant speed) with unlimited trials. The experiment was performed 24 h after the last training session. On the test day, mice were injected with studied compounds and, 30 min later, placed on the rotarod. The criterion of motor impairments was the inability of the animal to remain on the rotating rod for 60 s.

D2 receptors = tested on: D2 receptors; parameters: method as in doi:10.1016/j.molstruc.2022.134585; conditions: cited from earlier work
[4] = antagonist mode, 100 nM serotonin as reference agonist
[5] = D2, antagonist mode, 30 nM apomorphine as reference agonist

T2 sequence (P14416 whole entry): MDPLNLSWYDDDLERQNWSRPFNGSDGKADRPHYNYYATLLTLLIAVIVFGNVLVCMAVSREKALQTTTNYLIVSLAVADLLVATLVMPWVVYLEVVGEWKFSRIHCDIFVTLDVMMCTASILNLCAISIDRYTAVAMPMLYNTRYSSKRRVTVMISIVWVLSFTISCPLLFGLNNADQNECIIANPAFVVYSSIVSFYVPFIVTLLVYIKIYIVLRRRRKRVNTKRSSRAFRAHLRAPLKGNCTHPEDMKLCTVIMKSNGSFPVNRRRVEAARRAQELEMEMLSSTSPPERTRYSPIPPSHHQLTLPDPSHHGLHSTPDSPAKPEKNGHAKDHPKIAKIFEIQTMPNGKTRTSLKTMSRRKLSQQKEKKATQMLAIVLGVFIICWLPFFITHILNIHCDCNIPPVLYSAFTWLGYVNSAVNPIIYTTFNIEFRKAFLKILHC

COc1ccccc1N1CCN(CCCCCOc2ccccc2C(N)=O)CC1.Cl [JJGW08, 2-{5-[4-(2-metoksyfenylo)piperazin-1-ylo]pentoxy}benzamide hydrochloride]
Agonist Mode Emax% ([1]; agonist mode): 9% | Antagonist Mode Emax% [1, 4]: 1% | Antagonist Mode pIC50 ± Range [1, 4]: 8.3 ± 0.1 | affinity (in words) (5-HT1A receptors): high affinity | Agonist Mode Emax% (human D2 receptor; D2, agonist mode): 13% | Antagonist Mode Emax% (human D2 receptor; [5]): 0% | Antagonist Mode pIC50 ± Range (human D2 receptor; [5]): 7.9 ± 0.0 | Kb (human D2 receptor; D2, antagonist mode, Cheng equation): 2 nM | antagonistic properties (in words) (human D2 receptor; D2 functional assay): strong antagonistic properties | Number of Crossings (mice [2]; 0.15 mg/kg ip, 1 min session): 38 | Number of Crossings (mice [2]; 0.15 mg/kg ip, 30 min session): 547 | Number of Crossings (mice [2]; 0.15 mg/kg ip, 60 min session): 1346 | Number of Crossings (mice [2]; 0.3 mg/kg ip, 1 min session): 46 | Number of Crossings (mice [2]; 0.3 mg/kg ip, 30 min session): 1027 | Number of Crossings (mice [2]; 0.3 mg/kg ip, 60 min session): 1588 | Number of Crossings (mice [2]; 0.625 mg/kg ip, 1 min session): 27 | Number of Crossings (mice [2]; 0.625 mg/kg ip, 30 min session): 634 | Number of Crossings (mice [2]; 0.625 mg/kg ip, 60 min session): 1671 | Number of Crossings (mice [2]; 1.25 mg/kg ip, 1 min session): 22 | Number of Crossings (mice [2]; 1.25 mg/kg ip, 30 min session): 1181 | Number of Crossings (mice [2]; 1.25 mg/kg ip, 60 min session): 1769 | Number of Crossings (mice [2]; 2.5 mg/kg ip, 1 min session): 19 | Number of Crossings (mice [2]; 2.5 mg/kg ip, 30 min session): 437 | Number of Crossings (mice [2]; 2.5 mg/kg ip, 60 min session): 1450 | effect on locomotor activity (in words) (mice [2]; 0.15–2.5 mg/kg ip, 60-min and 30-min sessions): did not affect locomotor activity | TD50 relative to the lowest antipsychotic-like dose (mice [3]): 121 fold | Animals That Fell from Rotating Rod (mice [3]; 10 mg/kg ip): 2/8 | Time before Animals Fell (mice [3]; 10 mg/kg ip): 58 ± 4 s | Animals That Fell from Rotating Rod (mice [3]; 20 mg/kg ip): 4/8 | Time before Animals Fell (mice [3]; 20 mg/kg ip): 41 ± 24 s | Animals That Fell from Rotating Rod (mice [3]; 30 mg/kg ip): 6/8 | Time before Animals Fell (mice [3]; 30 mg/kg ip): 20 ± 25 s | TD50 (mice [3]; ip, dose at which 50% of the animals could not stay on the rotating rod): 18 (11–29) mg/kg | affinity (in words) (D2 receptors): high affinity
